Experimental data: patent US5491131A, “Somatostatin-active polypeptide composition” (Applied Research Systems ARS Holding NV, priority 1989, dated 1996)
Entries after “also recorded” stand apart in the source; their conditions may differ.

Assays:
[1] = tested on: rat mesangial cells in culture; assay: Reversal of hydrogen peroxide induced contraction of mesangial cells (CSA); assay type: cell-based, Wistar rats; conditions: for effect on CSA of untreated cells: somatostatin alone
Procedure: (§1) The mesangial cells were obtained after glomeruli isolation by differential sieving (R. P. Misra. Am. J. Clin. Pathol 1972 58 135-139) and collagenase digestion of kidney tissue from Wistar rats. The cell surface area (CSA) was measured using a digital planimeter.
(§2) Microphotographs were taken at different times and the CSA measured. Each experiment was repeated three times and a total of 8-15 cells were measured for each part of each experiment. The results are expressed as a percentage increase or decrease over the initial CSA, […].

[2] = tested on: rat mesangial cells in culture; assay: Prevention of hydrogen peroxide induced contraction of mesangial cells (CSA); assay type: cell-based, Wistar rats; conditions: for effect on hydrogen peroxide induced reduction in CSA: preincubation 10 minutes before hydrogen peroxide 10^-4 M; for change in CSA compared with the control: somatostatin alone
Procedure: as §1, §2

[3] = tested on: rat mesangial cells in culture; assay: Reversal of angiotensin II induced contraction of mesangial cells (CSA); assay type: cell-based, Wistar rats; conditions: FIG. 3
Procedure: as §1
In experiments concerned with the ability of somatostatin to revese contraction, the mesangial cells were incubated for 30 minutes with either angiotensin II or hydrogen peroxide (at the concentrations mentioned above) before somatostatin at a concentration of 10^-6 M or 10^-8 M was added to the cells.
(§3) In all these experiments, control cells lacked the addition of somatostatin, angiotensin II or hydrogen peroxide to the buffer.
as §2

guanylate cyclase = conditions: some cell types; cited from earlier work
[4] = somatostatin infusions of 250 to 375 microgrammes; cited from earlier work
[5] = in vivo; cited from earlier work
[6] = tested on: rat mesangial cells in culture; assay: Prevention of angiotensin II induced contraction of mesangial cells (cell surface area, CSA); assay type: cell-based, Wistar rats; conditions: for effect on contractile effect of angiotensin (CSA): preincubation 10 minutes before angiotensin II 10^-8 M
Procedure: as §1
In experiments concerned with the ability of somatostatin to prevent contraction, the mesangial cells were incubated with somatostatin for ten minutes at a concentration of 10^-6 M or 10^-8 M before the addition of angiotensin II (10^-8 M) or hydrogen peroxide (10^-4 M).
as §3, §2

Molecule: OO [hydrogen peroxide]
- contraction of cells treated with only hydrogen peroxide ([1]; hydrogen peroxide 10^-4 M alone, t=0 to t=60 minutes, FIGS. 7, 8, 10): remained in a contracted state; also recorded: contracted to a significant degree
- effect on CSA ([2]; hydrogen peroxide 10^-4 M alone): significant reduction in CSA

Molecule: C[C@H](N)C(=O)NCC(=O)N[C@H]1CSSC[C@@H](C(=O)O)NC(=O)[C@H](CO)NC(=O)[C@H]([C@@H](C)O)NC(=O)[C@H](Cc2ccccc2)NC(=O)[C@H]([C@@H](C)O)NC(=O)[C@H](CCCCN)NC(=O)[C@H](Cc2c[nH]c3ccccc23)NC(=O)[C@H](Cc2ccccc2)NC(=O)[C@H](Cc2ccccc2)NC(=O)[C@H](CC(N)=O)NC(=O)[C@H](CCCCN)NC1=O [somatostatin, Somatostatin]
- cell size in microphotographs ([1]; hydrogen peroxide at t=0, somatostatin added at t=30 minutes, read at t=60 minutes, FIG. 11): relax to almost their original size
- reversal of contractile effect of hydrogen peroxide (CSA) ([1]; somatostatin 10^-6 M added 30 minutes after hydrogen peroxide 10^-4 M, read after a further 30 minutes, FIG. 7): reverses contraction; also recorded: CSA returns to normal
- reversal of contractile effect of hydrogen peroxide (CSA) ([1]; somatostatin 10^-8 M added 30 minutes after hydrogen peroxide 10^-4 M, FIG. 8): The same effect was demonstrated
- effect on CSA of untreated cells ([1]; 10^-6 M, FIG. 7): did not significantly effect CSA
- effect on CSA of untreated cells ([1]; 10^-8 M, FIG. 8): did not significantly effect CSA
- change in CSA, incubated in isolation ([3]; somatostatin alone, 10^-6 M): did not observe any significant change in CSA
- intracellular cGMP concentrations (guanylate cyclase): increase intracellular cGMP concentrations
- reduction in heart rate [4]: about 10 beats per minute
- effect on hydrogen peroxide induced reduction in CSA ([2]; somatostatin 10^-6 M, FIG. 5): equally effective in preventing the contractile effect; also recorded: prevented
- effect on hydrogen peroxide induced reduction in CSA ([2]; somatostatin 10^-8 M, FIG. 6): prevented
- change in CSA compared with the control ([2]; 10^-6 M, FIG. 5): did not in itself induce any significant change in CSA
- change in CSA compared with the control ([2]; 10^-8 M, FIG. 6): did not in itself induce any significant change in CSA
- urinary calcium excretion [5]: reduces
- cell size in microphotographs ([6]; cells pre-treated with somatostatin before addition of angiotensin II, FIG. 12): substantially no change in the size of these cells
- effect on contractile effect of angiotensin (CSA) ([6]; somatostatin 10^-6 M, FIG. 1): completely preventing the contractile effect of angiotensin II; also recorded: completely inhibited the contractile effect of angiotensin
- effect on contractile effect of angiotensin (CSA) ([6]; somatostatin 10^-8 M, FIG. 2): the same effect occurs
- effect in isolation on CSA ([6]; somatostatin alone, 10^-6 M, FIG. 1): no significant effect

Molecule: angiotensin II [contractile stimulus added to mesangial cells at 10^-8 M]
- persistence of induced contraction ([3]; angiotensin II 10^-8 M alone): persisted for 60 minutes
- effect on CSA ([6]; angiotensin II 10^-8 M alone, after 30 minutes incubation): significantly reducing the CSA
